Reference: patent US20240100170A1, “CYCLIC-AMP RESPONSE ELEMENT BINDING PROTEIN (CBP) AND/OR ADENOVIRAL E1A BINDING PROTEIN OF 300 KDA (P300) DEGRADATION COMPOUNDS AND METHODS OF USE” (CULLGEN (SHANGHAI), INC., priority 2020, published 2024)
Like-named read-outs stand apart in the source and are kept apart here.

Legend:
[1] = tested on: LNCaP prostate cancer cell; test: LNCaP cell viability (CellTiter-Glo); assay type: cell-based; conditions: Homo sapiens, 72 h, LNCaP cell viability, 3 days, CellTiter-Glo
How it was run: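 CellTiter-Glo luminescence measured three days after dosing with a 12-point 3-fold compound dilution series. LNCaP cells seeded at 5000/well in RPMI 1640 with 10% FBS; data normalized to untreated controls and IC50 fitted by nonlinear least-squares regression.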

P300 = P300 (Homo sapiens, UniProt Q09472); test: percentage of inhibition (degradation) of p300 at 10 nM, Tables 2-4; assay type: cell-based; set-up: LNCaP or 22RV1 cells that express CBP/P300 proteins were treated with GNE-781 or the bivalent compounds; endogenous in cells; host or cells: LNCaP or 22RV1 (not given); conditions: for inhibition at 0.01 µM: read-out: Degradation (10 nM)
How it was run: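 Degradation was measured at 10 nM. Cells or tissue were lysed in RIPA with protease and phosphatase inhibitors for 30 min at 4 °C and cleared, and protein was quantified by BCA. Lysates were resolved by SDS-PAGE, detected by chemiluminescent immunoblot, and bands were quantified by densitometry.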

P300, sequence (Q09472 whole entry): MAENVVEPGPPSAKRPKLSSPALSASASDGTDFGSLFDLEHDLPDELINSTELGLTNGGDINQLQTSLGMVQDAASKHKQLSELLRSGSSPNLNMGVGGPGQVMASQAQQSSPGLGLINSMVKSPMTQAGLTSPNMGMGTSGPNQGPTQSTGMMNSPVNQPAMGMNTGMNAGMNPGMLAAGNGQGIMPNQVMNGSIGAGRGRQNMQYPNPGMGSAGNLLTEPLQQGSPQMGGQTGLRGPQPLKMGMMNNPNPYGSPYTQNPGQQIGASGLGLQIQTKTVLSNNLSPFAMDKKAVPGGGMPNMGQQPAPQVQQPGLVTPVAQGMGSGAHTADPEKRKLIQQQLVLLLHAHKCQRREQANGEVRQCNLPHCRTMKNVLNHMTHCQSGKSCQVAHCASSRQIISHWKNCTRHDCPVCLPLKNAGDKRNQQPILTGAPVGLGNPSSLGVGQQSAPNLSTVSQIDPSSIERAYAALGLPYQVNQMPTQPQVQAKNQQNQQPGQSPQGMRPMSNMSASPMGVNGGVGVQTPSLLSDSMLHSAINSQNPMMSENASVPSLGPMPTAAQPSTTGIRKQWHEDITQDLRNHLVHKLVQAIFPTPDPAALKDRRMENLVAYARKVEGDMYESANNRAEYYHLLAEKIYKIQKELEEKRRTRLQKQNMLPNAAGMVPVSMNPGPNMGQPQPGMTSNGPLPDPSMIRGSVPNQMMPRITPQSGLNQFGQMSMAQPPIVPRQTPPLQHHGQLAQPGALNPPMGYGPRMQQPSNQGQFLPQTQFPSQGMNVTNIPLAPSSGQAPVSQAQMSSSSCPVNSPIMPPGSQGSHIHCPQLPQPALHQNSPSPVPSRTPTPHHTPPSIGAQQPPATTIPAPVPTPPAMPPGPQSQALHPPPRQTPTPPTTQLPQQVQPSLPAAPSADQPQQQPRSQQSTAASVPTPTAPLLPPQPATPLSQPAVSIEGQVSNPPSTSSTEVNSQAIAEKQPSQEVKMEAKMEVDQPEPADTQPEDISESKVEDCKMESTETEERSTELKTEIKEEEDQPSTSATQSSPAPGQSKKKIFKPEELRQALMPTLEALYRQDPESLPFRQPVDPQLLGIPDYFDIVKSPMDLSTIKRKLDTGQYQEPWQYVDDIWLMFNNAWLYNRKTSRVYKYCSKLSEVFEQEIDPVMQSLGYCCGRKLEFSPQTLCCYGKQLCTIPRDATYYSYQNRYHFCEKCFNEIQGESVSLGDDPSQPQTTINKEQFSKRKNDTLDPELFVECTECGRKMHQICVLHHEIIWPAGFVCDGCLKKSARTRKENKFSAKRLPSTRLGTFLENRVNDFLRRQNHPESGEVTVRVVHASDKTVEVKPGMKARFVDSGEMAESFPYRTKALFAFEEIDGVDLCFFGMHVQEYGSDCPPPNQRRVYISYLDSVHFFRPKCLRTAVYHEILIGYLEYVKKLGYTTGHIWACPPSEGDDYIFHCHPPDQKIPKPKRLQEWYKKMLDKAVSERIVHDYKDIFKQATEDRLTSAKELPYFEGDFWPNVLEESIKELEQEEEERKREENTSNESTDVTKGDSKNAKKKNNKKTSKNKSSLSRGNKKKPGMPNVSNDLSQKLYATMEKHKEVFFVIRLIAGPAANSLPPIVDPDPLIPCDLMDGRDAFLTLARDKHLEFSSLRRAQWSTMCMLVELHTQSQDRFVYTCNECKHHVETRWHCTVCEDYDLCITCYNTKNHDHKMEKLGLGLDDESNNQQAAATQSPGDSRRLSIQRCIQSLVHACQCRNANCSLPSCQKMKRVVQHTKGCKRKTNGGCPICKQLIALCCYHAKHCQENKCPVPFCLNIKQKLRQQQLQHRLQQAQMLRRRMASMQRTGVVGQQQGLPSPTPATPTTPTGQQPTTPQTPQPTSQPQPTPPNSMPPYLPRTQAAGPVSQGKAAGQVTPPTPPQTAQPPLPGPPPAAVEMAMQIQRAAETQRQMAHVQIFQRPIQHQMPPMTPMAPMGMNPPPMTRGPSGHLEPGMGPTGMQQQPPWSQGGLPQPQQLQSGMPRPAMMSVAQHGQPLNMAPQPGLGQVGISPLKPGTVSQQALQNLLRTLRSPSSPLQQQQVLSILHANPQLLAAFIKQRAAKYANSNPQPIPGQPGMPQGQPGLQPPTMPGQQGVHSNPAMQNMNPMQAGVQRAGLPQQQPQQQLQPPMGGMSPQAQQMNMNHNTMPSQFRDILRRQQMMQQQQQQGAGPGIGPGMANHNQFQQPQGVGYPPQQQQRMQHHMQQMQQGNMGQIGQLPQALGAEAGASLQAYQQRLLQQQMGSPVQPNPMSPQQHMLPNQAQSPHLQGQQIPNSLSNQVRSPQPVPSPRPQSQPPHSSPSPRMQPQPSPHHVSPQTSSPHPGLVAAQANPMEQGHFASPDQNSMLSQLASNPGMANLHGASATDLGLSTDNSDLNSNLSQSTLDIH

Structure (SMILES)	IC50 ([1]; Table 4) [nM]	inhibition at 0.01 µM (P300; p300, 10 nM, Table 4) [%]	IC50 ([1]; Table 3) [nM]	Degradation (10 nM) (P300; p300, 10 nM, Table 3)	inhibition at 0.01 µM (P300) [%]
CC(=O)N1CCc2c(c(N3CCCc4cc(-c5cnn(C)c5)c(C(F)F)cc43)nn2C2CCN(C(=O)CNc3ccc(C(=O)NC4CCC(=O)NC4=O)c4ncccc34)CC2)C1 (stereo not shown) [P-254, 5-((2-(4-(5-acetyl-3-(7-(difluoromethyl)-6-(1-methyl-1H-pyrazol-4-yl)-3,4-dihydroquinolin-1(2H)-yl)-4,5,6,7-tetrahydro-1H-pyrazolo[4,3-c]pyridin-1-yl)piperidin-1-yl)-2-oxoethyl)amino)-N-(2,6-dioxopiperidin-3-yl)quinoline-8-carboxamide]	5.1	> 80	–	–	–
CC(=O)N1CCc2c(c(N3CCCc4cc(-c5cnn(C)c5)c(C(F)F)cc43)nn2C2CCN(C(=O)CCN3CCN(CC#Cc4cccc5c4n(C)c(=O)n5C4CCC(=O)NC4=O)CC3)CC2)C1 (stereo not shown) [P-238, 3-(4-(3-(4-(3-(4-(5-Acetyl-3-(7-(difluoromethyl)-6-(1-methyl-1H-pyrazol-4-yl)-3,4-dihydroquinolin-1(2H)-yl)-4,5,6,7-tetrahydro-1H-pyrazolo[4,3-c]pyridin-1-yl)piperidin-1-yl)-3-oxopropyl)piperazin-1-yl)prop-1-yn-1-yl)-3-methyl-2-oxo-2,3-dihydro-1H-benzo[d]imidazol-1-yl)piperidine-2,6-dione]	81.1	20 to 50	–	–	–
CC(=O)N1CCc2c(c(N3CCCc4cc(-c5cnn(C)c5)c(C(F)F)cc43)nn2C2CCN(Cc3ccc(CNc4cccc5c4CN(C4CCC(=O)NC4=O)C5=O)nc3)CC2)C1 (stereo not shown) [P-196, 3-(4-(((5-((4-(5-acetyl-3-(7-(difluoromethyl)-6-(1-methyl-1H-pyrazol-4-yl)-3,4-dihydroquinolin-1(2H)-yl)-4,5,6,7-tetrahydro-1H-pyrazolo[4,3-c]pyridin-1-yl)piperidin-1-yl)methyl)pyridin-2-yl)methyl)amino)-1-oxoisoindolin-2-yl)piperidine-2,6-dione]	2.4	> 80	–	–	–
CC(=O)N1CCc2c(c(N3CCCc4cc(-c5cnn(C)c5)c(C(F)F)cc43)nn2C2CCN(CCN3CCC(CCNc4cccc5c4C(=O)N(C4CCC(=O)NC4=O)C5=O)CC3)CC2)C1 (stereo not shown) [P-188, 4-((2-(1-(2-(4-(5-acetyl-3-(7-(difluoromethyl)-6-(1-methyl-1H-pyrazol-4-yl)-3,4-dihydroquinolin-1(2H)-yl)-4,5,6,7-tetrahydro-1H-pyrazolo[4,3-c]pyridin-1-yl)piperidin-1-yl)ethyl)piperidin-4-yl)ethyl)amino)-2-(2,6-dioxopiperidin-3-yl)isoindoline-1,3-dione]	2.3	–	–	–	> 80
CC(=O)N1CCc2c(c(N3CCCc4cc(-c5cnn(C)c5)c(C(F)F)cc43)nn2C2CCN(CCCCC3CN(c4cccc5c4C(=O)N(C4CCC(=O)NC4=O)C5=O)C3)CC2)C1 (stereo not shown) [P-201, 4-(3-(4-(4-(5-acetyl-3-(7-(difluoromethyl)-6-(1-methyl-1H-pyrazol-4-yl)-3,4-dihydroquinolin-1(2H)-yl)-4,5,6,7-tetrahydro-1H-pyrazolo[4,3-c]pyridin-1-yl)piperidin-1-yl)butyl)azetidin-1-yl)-2-(2,6-dioxopiperidin-3-yl)isoindoline-1,3-dione]	10.4	> 80	–	–	–
CC(=O)N1CCc2c(c(N3CCCc4cc(-c5cnn(C)c5)c(C(F)F)cc43)nn2C2CCN(C(=O)CCN3CCN(CC#Cc4ccc5c(c4)n(C)c(=O)n5C4CCC(=O)NC4=O)CC3)CC2)C1 (stereo not shown) [P-233, 3-(5-(3-(4-(3-(4-(5-Acetyl-3-(7-(difluoromethyl)-6-(1-methyl-1H-pyrazol-4-yl)-3,4-dihydroquinolin-1(2H)-yl)-4,5,6,7-tetrahydro-1H-pyrazolo[4,3-c]pyridin-1-yl)piperidin-1-yl)-3-oxopropyl)piperazin-1-yl)prop-1-yn-1-yl)-3-methyl-2-oxo-2,3-dihydro-1H-benzo[d]imidazol-1-yl)piperidine-2,6-dione]	18.2	50 to 80	–	–	–
CC(=O)N1CCc2c(c(N3CCCc4cc(-c5cnn(C)c5)c(C(F)F)cc43)nn2C2CCN(C(=O)CCN3CCN(Cc4ccc5c(c4)n(C)c(=O)n5C4CCC(=O)NC4=O)CC3)CC2)C1 (stereo not shown) [P-216, 3-(5-((4-(3-(4-(5-Acetyl-3-(7-(difluoromethyl)-6-(1-methyl-1H-pyrazol-4-yl)-3,4-dihydroquinolin-1(2H)-yl)-4,5,6,7-tetrahydro-1H-pyrazolo[4,3-c]pyridin-1-yl)piperidin-1-yl)-3-oxopropyl)piperazin-1-yl)methyl)-3-methyl-2-oxo-2,3-dihydro-1H-benzo[d]imidazol-1-yl)piperidine-2,6-dione]	26.8	20 to 50	–	–	–
CC(=O)N1CCc2c(c(N3CCCc4cc(-c5cnn(C)c5)c(C(F)F)cc43)nn2C2CCN(CCN3CCOC(CNc4cccc5c4C(=O)N(C4CCC(=O)NC4=O)C5)C3)CC2)C1 (stereo not shown) [P-198, 3-(7-(((4-(2-(4-(5-acetyl-3-(7-(difluoromethyl)-6-(1-methyl-1H-pyrazol-4-yl)-3,4-dihydroquinolin-1(2H)-yl)-4,5,6,7-tetrahydro-1H-pyrazolo[4,3-c]pyridin-1-yl)piperidin-1-yl)ethyl)morpholin-2-yl)methyl)amino)-1-oxoisoindolin-2-yl)piperidine-2,6-dione]	2.4	–	–	–	> 80

The next lines start with results.

IC50 ([1]; Table 4) [nM]	inhibition at 0.01 µM (P300; p300, 10 nM, Table 4) [%]	IC50 ([1]; Table 3) [nM]	Degradation (10 nM) (P300; p300, 10 nM, Table 3)	Structure (SMILES)	inhibition at 0.01 µM (P300) [%]
51.2	20 to 50	–	–	CC(=O)N1CCc2c(c(N3CCCc4cc(-c5cnn(C)c5)c(C(F)F)cc43)nn2C2CCN(C(=O)CCCN3CCC(CNc4cccc5c4n(C)c(=O)n5C4CCC(=O)NC4=O)CC3)CC2)C1 (stereo not shown) [P-214, 3-(4-(((1-(4-(4-(5-Acetyl-3-(7-(difluoromethyl)-6-(1-methyl-1H-pyrazol-4-yl)-3,4-dihydroquinolin-1(2H)-yl)-4,5,6,7-tetrahydro-1H-pyrazolo[4,3-c]pyridin-1-yl)piperidin-1-yl)-4-oxobutyl)piperidin-4-yl)methyl)amino)-3-methyl-2-oxo-2,3-dihydro-1H-benzo[d]imidazol-1-yl)piperidine-2,6-dione]	–
33.1	20 to 50	–	–	CC(=O)N1CCc2c(c(N3CCCc4cc(-c5cnn(C)c5)c(C(F)F)cc43)nn2C2CCN(C(=O)CCCN3CCN(Cc4ccc5c(c4)n(C)c(=O)n5C4CCC(=O)NC4=O)CC3)CC2)C1 (stereo not shown) [P-215, 3-(5-((4-(4-(4-(5-Acetyl-3-(7-(difluoromethyl)-6-(1-methyl-1H-pyrazol-4-yl)-3,4-dihydroquinolin-1(2H)-yl)-4,5,6,7-tetrahydro-1H-pyrazolo[4,3-c]pyridin-1-yl)piperidin-1-yl)-4-oxobutyl)piperazin-1-yl)methyl)-3-methyl-2-oxo-2,3-dihydro-1H-benzo[d]imidazol-1-yl)piperidine-2,6-dione]	–
18.7	> 80	–	–	CC(=O)N1CCc2c(c(N3CCCc4cc(-c5cnn(C)c5)c(C(F)F)cc43)nn2C2CCN(C(=O)CCN3CCC(CNc4ccc5c(c4)n(C)c(=O)n5C4CCC(=O)NC4=O)CC3)CC2)C1 (stereo not shown) [P-218, 3-(5-(((1-(3-(4-(5-Acetyl-3-(7-(difluoromethyl)-6-(1-methyl-1H-pyrazol-4-yl)-3,4-dihydroquinolin-1(2H)-yl)-4,5,6,7-tetrahydro-1H-pyrazolo[4,3-c]pyridin-1-yl)piperidin-1-yl)-3-oxopropyl)piperidin-4-yl)methyl)amino)-3-methyl-2-oxo-2,3-dihydro-1H-benzo[d]imidazol-1-yl)piperidine-2,6-dione]	–
96.8	< 20	–	–	CC(=O)N1CCc2c(c(N3CCCc4cc(-c5cnn(C)c5)c(C(F)F)cc43)nn2C2CCN(C(=O)CCN3CCC(CNc4cccc5c4n(C)c(=O)n5C4CCC(=O)NC4=O)CC3)CC2)C1 (stereo not shown) [P-213, 3-(4-(((1-(3-(4-(5-Acetyl-3-(7-(difluoromethyl)-6-(1-methyl-1H-pyrazol-4-yl)-3,4-dihydroquinolin-1(2H)-yl)-4,5,6,7-tetrahydro-1H-pyrazolo[4,3-c]pyridin-1-yl)piperidin-1-yl)-3-oxopropyl)piperidin-4-yl)methyl)amino)-3-methyl-2-oxo-2,3-dihydro-1H-benzo[d]imidazol-1-yl)piperidine-2,6-dione]	–
844	< 20	–	–	CC(=O)N1CCc2c(c(N3CCCc4cc(-c5cnn(C)c5)c(C(F)F)cc43)nn2C2CCN(CCCN3CCC(Cn4c(=O)n(C5CCC(=O)NC5=O)c5ccccc54)CC3)CC2)C1 (stereo not shown) [P-235, 3-(3-((1-(3-(4-(5-Acetyl-3-(7-(difluoromethyl)-6-(1-methyl-1H-pyrazol-4-yl)-3,4-dihydroquinolin-1(2H)-yl)-4,5,6,7-tetrahydro-1H-pyrazolo[4,3-c]pyridin-1-yl)piperidin-1-yl)propyl)piperidin-4-yl)methyl)-2-oxo-2,3-dihydro-1H-benzo[d]imidazol-1-yl)piperidine-2,6-dione]	–
–	–	24.2	B (B: 50% ≤ Degradation < 80%)	CNC(=O)N1CCc2c(c(N3CCCc4cc(-c5cnn(C)c5)c(C(F)F)cc43)nn2C2CCN(C(=O)CCCCCCn3c(=O)n(C4CCC(=O)NC4=O)c4ccccc43)CC2)C1 (stereo not shown) [P-106, 3-(7-(difluoromethyl)-6-(1-methyl-1H-pyrazol-4-yl)-3,4-dihydroquinolin-1(2H)-yl)-1-(1-(7-(3-(2,6-dioxopiperidin-3-yl)-2-oxo-2,3-dihydro-1H-benzo[d]imidazol-1-yl)heptanoyl)piperidin-4-yl)-N-methyl-1,4,6,7-tetrahydro-5H-pyrazolo[4,3-c]pyridine-5-carboxamide]	–
